Measurements from patent EP0226985A2, “Method and reagent for determining testosterone as well as a monoclonal antibody suitable for this” (BOEHRINGER MANNHEIM GMBH, priority 1985, dated 1987).

Key:
[1] = tested on: monoklonaler Antikörper MAK 97 (von Klon 97, ECACC 85 12 1702) gegen Testosteron; assay: Cross-reaction with other steroids, competitive ELISA on plates coated with Testosteron-3-carboxymethyloxim-RSA; type: binding, Maus; conditions: calculated from C = antigen concentration needed to reach 50 % of the maximum signal, relative to Testosteron
Description: (§1) Um die Anwesenheit und Spezifität von Antikörpern gegen Testosteron im Serum immunisierter Mäuse oder in dem Kulturüberstand der Hybridzellen oder in Ascites zu erkennen, wird ein ELISA-Verfahren als Testprinzip verwendet: Mikrotiterplatten werden mit 1 /ug Testosteron-3-carboxymethyloxim-RSA/ml Beschichtungspuffer (0,2 M Natriumcarbonat/-Bicarbonat, pH 9,3-9,5) bei 37° C eine Stunde lang beschichtet. Es wird 10 Minuten mit 0,9 % Natriumchloridlösung und 1 % Albuminlösung nachbehandelt. Anschließend wird mit 0,9 % Natriumchloridlösung gewaschen. Danach wird bei 37° C eine Stunde mit 100 /ul Probe inkubiert und erneut mit 0,9 % Natriumchloridlösung gewaschen. Um eine mögliche Kreuzreaktion mit anderen Steroiden zu prüfen, werden der Probelösung 100 µg - 1 /ug/ml des zu prüfenden Steroids zugesetzt. Eine Erniedrigung des Meßsignals in Gegenwart anderer Steroide bedeutet Kreuzreaktion. Es folgt eine weitere Inkubation (eine Stunde, 37° C) mit 450 mU/ml eines Schaf-Fabanti-- Maus-Fcγ-Peroxidase-Konjugats. Nach einem erneuten Waschschritt mit 0,9 % Natriumchlorid wird die Peroxidaseaktivität in üblicher Weise bestimmt (beispielsweise mit ABTS, 30 Minuten bei Raumtemperatur, abgelesen wird die Extinktionsdifferenz, Δ mE, bei 405 nm).
(§2) Der Test wird, wie in Beispiel 2 beschrieben, durchgeführt. […]

[2] = tested on: monoklonaler Antikörper MAK 160 (von Klon 160, ECACC 85 12 1701) gegen Testosteron; assay: as above; type: binding, Maus; conditions: calculated from C = antigen concentration needed to reach 50 % of the maximum signal, relative to Testosteron
Description: as §1, §2

C[C@]12CCC(=O)C[C@@H]1CC[C@@H]1[C@@H]2CC[C@]2(C)[C@@H](O)CC[C@@H]12 [5α-Dihydrotestosteron]
Kreuzreaktion in % mit [1]: 5% | Kreuzreaktion in % mit [2]: 4%
